# “Also recorded” adds a separate entry of the source.
# Tests used:
# [1] = test system: mouse bone marrow-derived mesenchymal stem cell (BMSC) cultures; experiment: myogenic differentiation in mouse BMSC cultures; type: cell-based; conditions: 7 days, 5% FBS DMEM
# Description: MSCs were isolated as described previously (ref) with minor modification. Briefly, mouse bone marrow cells (1−2×10^7) harvested from long bones of 4-6 weeks old mice were seeded onto 100-mm culture dishes, incubated for 3 hours at 37° C. to allow attachment of adherent cells, and then rinsed twice with PBS to remove the nonadherent cells. The bone marrow-derived MSCs formed adherent colonies after 12-15 days of culture. Primary cultures were passed to disperse the colony-forming cells (passage 1). The cells were then subcultured again when they reached 70% confluent. Cells were maintained in α-MEM (Gibco BRL; Invitrogen Corp.) containing 20% fetal bovine serum (FBS; Equitech-Bio Inc.), 2 mM L-glutamine, a combination of 100 U/ml penicillin and 100 μg/ml streptomycin (Biofluids Inc.), and 55 μM 2-mercaptoethanol (Gibco BRL; Invitrogen Corp.) before the first passage. After the first passage, cells were maintained in 10% FBS, α-MEM unless indicated.
# The differential effects of retinoid agonists on myogenic differentiation in mouse bone marrow-derived mesenchymal stem cell (BMSC) cultures were investigated. BMSCs were prepared from femurs and tibias of 6 week-old mice by standard methods and maintained in 5% FBS DMEM for 7 days in presence of 0.1% DMSO (vehicle: Control), 1 μM all-trans retinoic acid (RA) (commercially available from Sigma), 1 μM RAR alpha-agonist (obtained from NuRx Pharmaceuticals) or 30 nM RAR gamma-agonist (CD1530, commercially available).
# [2] = test system: muscle defect in calf or anterior tibial muscles; experiment: muscle defect mouse model, systemic or local administration of RAR agonist; type: in vivo; conditions: for muscle repair: 100 μg/gavage/day at day 8, 10 and 12 from injury, 4 weeks after surgery
# Text: Histological Procedures. To inspect muscle tissue structure, samples were fixed in 4% PFA and embedded in paraffin. Five μm serial sections were stained by either H&E (http://www.ihcworld.com/_protocols/special_stains/HE_Mayer.htm) or Masson's trichrome staining solution (http://www.ihcworld.com/_protocols/special_stains/masson_trichrome.htm). To detect adipose tissue, 4% PFA fixed samples were equilibrated in 20% sucrose in PBS, embedded in OCT compound and then sectioned by cryostat. Ten μm cryosections were dried, rehydrated and then stained with Oil-red O (http://www.ihcworld.com/_protocols/special_stains/oil_ red o.htm).
# Immuno-Fluorescence. For the detection of various antigens in tissue sections, 5 μm paraffin sections were de-paraffinized, re-hydrated and then treated with 0.1% pepsin in 0.02 N HCl for 15 min at 37° C. Sections were washed three times in PBS-T and blocked in 10% normal goat serum with 0.3% BSA. Sections were incubated with 1st antibody, washed three times with PBS-T and then incubated with 2nd antibody. The list of antigens, antibodies and their dilutions are shown below.
# Local and Systemic Administration of RAR Agonist. Systemic administration of RAR agonist was carried out by gavage as described previously (Shimono et al. J. Orthop. Res. 28:271-277, 2010). Local delivery of RAR agonist was done by injecting RAR agonist (dissolved in DMSO) using Hamilton syringe 87943 with 26G needle.
# A muscle defect mouse model was used to investigate the muscle repair stimulation by administration of RAR gamma-agonists. A round-shaped defect was created with an electric cautery in calf or anterior tibial muscles in 8 week-old mice resulting in a 2.0 mm×2.0 mm×2.0 mm defect.
# Round-shaped defects were created in calf-muscle tissue of 8 weeks old mice as above (one muscle defect/mouse). […] Tissue was collected for histological analysis on day 14.
# […] Tissues were collected for histological analysis at 2 and 4 weeks. Macro-photos of injured muscle tissue collected from control and RAR gamma-agonist (CD1530)-treated mice were taken at 4 weeks after injury.
# Histological analysis of skeletal muscle tissue was performed 4 weeks after injury. Serial transverse sections of muscle tissue specimens collected 4 weeks after injury (same samples as discussed directly above) were stained with Masson's trichrome or processed for immuno-staining with antibodies to laminin (an extracellular protein abundant around muscle cells). […] To evaluate and quantify the changes of skeletal muscle tissue structure, images of trichrome-stained serial sections were taken and the relative amounts of muscle fiber, adipose and fibrous tissues were determined in multiple defined areas by ImagePro software. The analyzed areas were 9×9 grids each (about 3×3 mm) that included the original injured site (2×2 mm).
# The effects of various retinoid agonists on skeletal muscle repair were examined Macro photographs were taken of muscle injury sites at the 4-week time point.
# RAR subtypes = conditions: cited from earlier work
# RXR receptors = conditions: cited from earlier work
# [3] = test system: mesenchymal stem cell line; experiment: MyoD and Myf5 immunostaining in mesenchymal stem cell (MSC) cultures; type: cell-based; conditions: 100 nM, 10 days
# Description: Cells from a mesenchymal stem cell line were cultured for 10 days in the presence or absence of RAR gamma-agonist (CD1530, 100 nM). Cultures were processed for immunostaining with MyoD or Myf5 antibodies or stained with nuclear dye DAPI. […] Results indicated an increase in MyoD and Myf5 levels by the RAR gamma-agonist in mesenchymal stem cell (MSC) cultures.
# [4] = 300 μg by gavage on day 8, 10 and 12, 4 weeks after injury
# [5] = 900 μg by gavage on day 8, 10 and 12, 4 weeks after injury
# [6] = 100 ng on day 5, 7 and 9, 4 weeks after injury
# [7] = 300 μg/day by gavage on day 8, 10 and 12, 4 weeks after injury
smiles,measurement,setting,value
"CC1=C(/C=C/C(C)=C/C=C/C(C)=C/C(=O)O)C(C)(C)CCC1 [RA, all-trans retinoic acid]",formation of elongated multinucleated muscle cells,[1]; 1 μM,formed only in RAR gamma-agonist treated cultures
same,fibrous tissue area,"[2]; 300 μg by gavage on day 8, 10 and 12, 4 weeks",significant increase of fibrous tissue area
same,macroscopic appearance of injury site,[2]; [4],still clearly visible as large whitish spots
same,muscle fiber area,"[2]; 300 μg by gavage on day 8, 10 and 12, 4 weeks, control 33%, normal 90%",54%
same,binding affinity to the three RAR subtypes,RAR subtypes,approximately equal affinity
same,binding to the RXR receptors,RXR receptors,does not bind
"CC1(C)CCC(C)(C)c2cc(Cn3cccn3)c(/C=C/c3ccc(C(=O)O)cc3)cc21 [Palovarotene, 4-[(E)-2-[5,6,7,8-Tetrahydro-5,5,8,8-tetramethyl-3-(1H-pyrazol-1-ylmethyl)-2-naphthalenyl]-ethenyl]-benzoic acid]",muscle repair,[2],induced effective muscle repair
CC1(C)CCC(C)(C)c2c1cc(C(=O)Nc1cc(F)c(C(=O)O)c(F)c1)c(O)c2Cl [NRX195183],formation of elongated multinucleated muscle cells,[1]; 1 μM,formed only in RAR gamma-agonist treated cultures
same,macroscopic appearance of injury site,[2]; [5],still clearly visible as large whitish spots
same,tissue composition (histomorphometric quantification),[2]; [5],did not improve tissue composition
"O=C(O)c1ccc(-c2ccc3cc(O)c(C45CC6CC(CC(C6)C4)C5)cc3c2)cc1 [CD1530, 4-(6-Hydroxy-7-tricyclo[3.3.1.13,7]dec-1-yl-2-naphthalenyl)benzoic acid]",formation of elongated multinucleated muscle cells,[1]; 30 nM,Many elongated multinucleated muscle cells formed
same,Myf5 immunostaining,[3],clearly present
same,MyoD immunostaining,[3],clearly present
same,HE histology of muscle defect,"[2]; 100 ng on day 1, 3, 5, 7 and 9, 4 weeks after injury",decreased adipose and fibrous scar tissue formation but left a large indentation
same,HE histology of muscle defect,"[2]; 100 ng on day 1, 3 and 5, 4 weeks after injury",decreased adipose and fibrous scar tissue formation but left a large indentation
same,indentation at muscle defect,[2]; [6],much reduced indentation
same,quality and amount of newly formed muscle tissue,[2]; [6],best
same,repair of muscle defects after local administration,"[2]; 3 μg injected subcutaneously around the injury site on day 8 and 10, 4 weeks",almost completely repaired
same,macroscopic appearance of injury site,[2]; [4],almost no visible sign of the original defect; also recorded: essentially invisible
same,"tissue composition (relative amounts of muscle fiber, adipose and fibrous tissues, ImagePro)",[2]; [4],largely restored the tissue composition; also recorded: almost normal
same,anti-laminin staining of repair tissue,[2]; [7],stained strongly with anti-laminin antibodies
same,repair of muscle injury (Masson's trichrome sections),[2]; [7],almost completely repaired
same,"amount of adipose and fibrous tissue (histo-morphometric analysis, ImagePro)","[2]; Day 5-9 treated group, Masson's trichrome, FIG. 6",least amount of adipose and fibrous tissue among all injured groups
same,histological analysis of muscle defect,"[2]; anterior tibial muscle, 300 μg/day by gavage on day 8, 10 and 12, 2 and 4 weeks",filled with muscle fibers aligned along the major longitudinal axis of the anterior tibial muscle
same,myosin heavy chain (MHC) immunostaining of defect site,"[2]; calf muscle, 300 μg/day by gavage on day 8, 10 and 12, day 14",many of these cells were MHC positive
same,histology of muscle defect site,"[2]; calf muscle, 300 μg/day by gavage on day 8, 10 and 12 after injury, day 14",filled with many elongated muscle-like cells
same,HE histology of muscle defect,"[2]; treated at days 1-3, 4 weeks after injury",decreased adipose and fibrous scar tissue formation but left a partial defect
same,HE histology of muscle defect,"[2]; treated at days 5-7, 4 weeks after injury",completely filled with newly generated muscle fibers
CC1=C(/C=C/C(C)=C\C=C\C(C)=C\C(=O)O)C(C)(C)CCC1 [9-cis retinoic acid],binding to the RXR receptors,RXR receptors,natural ligand
"O=C(O)c1ccc2cc(-c3ccc(O)c(C45CC6CC(CC(C6)C4)C5)c3)ccc2c1 [CD437, 6-(4-Hydroxy-3-tricyclo[3.3.1.13,7]dec-1-ylphenyl)-2-naphthalenecarboxylic acid]",muscle repair,[2],induced effective muscle repair

# Reference: patent US9314439B2, “Composition and method for muscle repair and regeneration” (Thomas Jefferson University, priority 2010, dated 2016)
